Results reported in patent US9518038B2, “Condensation product of theanine derivative and carboxylic acid coumarin derivative, its intermediate, preparation method and use thereof” (SHANDONG YINGDONG YINGHAO BIOTECHNOLOGY, INC., priority 2012, dated 2016).

Legend:
[1] = test system: human lung cancer cells H460; assay: MTT growth inhibition, H460 cells; format: cell-based; conditions: NCI-H460, 72 h after treatment, read-out: Drug concentration (IC50) at which 50% cancer cells survived
From the text: (§1) Cell lines and cell culture: human lung cancer cells A549 and H460, human breast cancer cells MCF-7 and MDA-MB-231, human gastric cancer cells BGC-823, human prostate cancer cells PC-3, human chronic leukemia cells K562, human lymphoma cells U937, human liver cancer cells SMMC7721 and HepG2, human colon cancer cells HT29, human pancreatic cancer cells PANC-1 and BxPC3, human cervical cancer Hela cell lines, human brain tumor cells Daoy, human neuroma cells D54 and human oral epidermoid cancer cells KBV200 line with strong drug resistance, mouse melanoma cells B16, and highly metastatic Lewis lung cancer cell lines were purchased from American Type Culture Collection of the U.S. These cells were cultured with DMEM and RPMI-1640 culture solutions separately.
(§2) The procedure was as follows:
(§3) (1) 0.25% trypsin was used to digest cancer cells in a logarithmic growth phase to prepare a single-cell suspension, the concentration of cells was adjusted to 5×10^4/mL, and the adjusted suspension was inoculated into a 96-well culture plate with 100 μl per well;
(§4) (2) The culture plate was transferred into a 37° C. incubator with a saturated humidity and 5% of CO2 and cultured for 24 h; the compounds and the intermediates thereof obtained in embodiments 1-7 and the compound as represented by formula (IIIa) or the positive control anti-cancer drug with the concentration of 1-1000 μM/L were added to enable the final concentration to be 0.1-1500 μM/L. Control wells (only added with 200 μl of cell suspension) and drug-free blank control wells (containing the solvent of 0.01% DMSO) were set, each group included 8 wells, and the plate was placed into the 37° C. incubator with saturated humidity and 5% of CO2 for culturing;
(§5) (3) The 96-well plate was taken out at 48 h and 72 h after dosing, the original culture medium was carefully removed by suction, 100 μl of serum-free DMEM culture medium and 10 μl of MTT (5 mg/mL) solution were added in each well. The plate was continuously cultured for another 4 h and then the culture was terminated;
(§6) (4) The supernatant in the wells was carefully removed by suction, each well was added with 150 μl of DMSO and shaked at room temperature for 10-15 min to fully dissolve crystals.
(§7) (5) Colorimetric analysis: the wavelength was selected as 570 nm, the light absorbance (A value) of each well was determined on the microplate reader and the results were recorded; the experiment was repeated for three times;
(§8) (6) the experimental results were calculated according to the following formula: relative survival rate=(A value of each experimental group/A value of cell control group)×100%
(§9) Calculation of median-effect concentration (IC50, namely the drug concentration at which the inhibition rate is 50%, also known as half inhibitory concentration):
(§10) IC50 of the detected component was calculated by using a regression equation.

[2] = test system: human lung cancer cells A549; assay: MTT growth inhibition, A549 cells; format: cell-based; conditions: 72 h after treatment, read-out: Drug concentration (IC50) at which 50% cancer cells survived
From the text: as §1, §2, §3, §4, §5, §6, §7, §8, §9, §10

[3] = test system: human liver cancer cells HepG2; assay: MTT growth inhibition, HepG2 cells; format: cell-based; conditions: 72 h after treatment, read-out: Drug concentration (IC50) at which 50% cancer cells survived
From the text: as §1, §2, §3, §4, §5, §6, §7, §8, §9, §10

[4] = test system: human pancreatic cancer cells BxPC3; assay: MTT growth inhibition, BxPc3 cells; format: cell-based; conditions: Homo sapiens, BXPC-3, 72 h after treatment, read-out: Drug concentration (IC50) at which 50% cancer cells survived
From the text: as §1, §2, §3, §4, §5, §6, §7, §8, §9, §10

[5] = test system: human oral epidermoid cancer cells KBV200; assay: MTT growth inhibition, KBV200 cells; format: cell-based; conditions: 72 h after treatment, read-out: Drug concentration (IC50) at which 50% cancer cells survived
From the text: as §1, §2, §3, §4, §5, §6, §7, §8, §9, §10

[6] = test system: human brain tumor cells Daoy; assay: MTT growth inhibition, Daoy cells; format: cell-based; conditions: Homo sapiens, 72 h after treatment, read-out: Drug concentration (IC50) at which 50% cancer cells survived
From the text: as §1, §2, §3, §4, §5, §6, §7, §8, §9, §10

[7] = test system: human lymphoma cells U937; assay: MTT growth inhibition, U937 cells; format: cell-based; conditions: Homo sapiens, U-937, 72 h after treatment, read-out: Drug concentration (IC50) at which 50% cancer cells survived
Protocol: as §2, §5, §6, §7, §8, §10

mouse melanoma cells B16 = assay: MTT growth inhibition, B16 cells; format: cell-based; conditions: Mus musculus, 72 h after treatment, read-out: Drug concentration (IC50) at which 50% cancer cells survived
From the text: as §1, §2, §3, §4, §5, §6, §7, §8, §9, §10

[8] = test system: highly metastatic Lewis lung cancer cell lines; assay: MTT growth inhibition, LLC cells; format: cell-based, mouse; conditions: Mus musculus, Lewis lung carcinoma, 72 h after treatment, read-out: Drug concentration (IC50) at which 50% cancer cells survived
From the text: as §1, §2, §3, §4, §5, §6, §7, §8, §9, §10

[9] = test system: human gastric cancer cells BGC-823; assay: MTT growth inhibition, BGC-823 cells; format: cell-based; conditions: 72 h after treatment, read-out: Drug concentration (IC50) at which 50% cancer cells survived
From the text: as §1, §2, §3, §4, §5, §6, §7, §8, §9, §10

[10] = test system: human cervical cancer Hela cell lines; assay: MTT growth inhibition, Hela cells; format: cell-based; conditions: Homo sapiens, 72 h after treatment, read-out: Drug concentration (IC50) at which 50% cancer cells survived
From the text: as §1, §2, §3, §4, §5, §6, §7, §8, §9, §10

[11] = test system: Caski human cervical cancer cells; assay: MTT growth inhibition, Caski cells; format: cell-based; conditions: Ca-Ski, 72 h after treatment, read-out: Drug concentration (IC50) at which 50% cancer cells survived
[12] = test system: human colon cancer cells HT29; assay: MTT growth inhibition, HT29 cells; format: cell-based; conditions: HT-29, 72 h after treatment, read-out: Drug concentration (IC50) at which 50% cancer cells survived
From the text: as §1, §2, §3, §4, §5, §6, §7, §8, §9, §10

[13] = test system: human breast cancer cells MDA-MB-231; assay: MTT growth inhibition, MDA-MB-231 cells; format: cell-based; conditions: 72 h after treatment, read-out: Drug concentration (IC50) at which 50% cancer cells survived
From the text: as §1, §2, §3, §4, §5, §6, §7, §8, §9, §10

[14] = test system: human liver cancer cells SMMC7721; assay: MTT growth inhibition, SMMC7721 cells; format: cell-based; conditions: SMMC-7721, S-7721 (SMMC7721), 72 h after treatment, read-out: Drug concentration (IC50) at which 50% cancer cells survived
From the text: as §1, §2, §3, §4, §5, §6, §7, §8, §9, §10

[15] = test system: human pancreatic cancer cells PANC-1; assay: MTT growth inhibition, PANC-1 cells; format: cell-based; conditions: 72 h after treatment, read-out: Drug concentration (IC50) at which 50% cancer cells survived
From the text: as §1, §2, §3, §4, §5, §6, §7, §8, §9, §10

[16] = test system: human chronic leukemia cells K562; assay: MTT growth inhibition, K562 cells; format: cell-based; conditions: 72 h after treatment, read-out: Drug concentration (IC50) at which 50% cancer cells survived
From the text: as §1, §2, §3, §4, §5, §6, §7, §8, §9, §10

[17] = test system: human prostate cancer cells PC-3; assay: MTT growth inhibition, PC-3 cells; format: cell-based; conditions: 72 h after treatment, read-out: Drug concentration (IC50) at which 50% cancer cells survived
From the text: as §1, §2, §3, §4, §5, §6, §7, §8, §9, §10

human neuroma cells D54 = assay: MTT growth inhibition, D54 cells; format: cell-based; conditions: Homo sapiens, 72 h after treatment, read-out: Drug concentration (IC50) at which 50% cancer cells survived
From the text: as §1, §2, §3, §4, §5, §6, §7, §8, §9, §10

[18] = test system: human breast cancer cells MCF-7; assay: MTT growth inhibition, MCF-7 cells; format: cell-based; conditions: MCF7, 72 h after treatment, read-out: Drug concentration (IC50) at which 50% cancer cells survived
From the text: as §1, §2, §3, §4, §5, §6, §7, §8, §9, §10

Row | Compound | IC50 [1] | IC50 [2] | IC50 [3] | IC50 [4] | IC50 [5] | IC50 [6] | IC50 [7] | IC50 (mouse melanoma cells B16) | IC50 [8] | IC50 [9] | IC50 [10] | IC50 [11] | IC50 [12] | IC50 [13] | IC50 [14] | IC50 [15] | IC50 [16] | IC50 [17] | IC50 (human neuroma cells D54) | IC50 [18]
1 | O=C(O)c1cc2cc(Cl)ccc2oc1=O [Compound IIIc, 6-chlorocoumarin-3-carboxylic acid] | 350 ± 50 µM | 600 ± 30 µM | 300 µM | 500 µM | 400 µM | 400 µM | 500 µM | 600 µM | 400 µM | 300 µM | 600 µM | 400 µM | 700 µM | 500 µM | 500 µM | 500 µM | 600 µM | 500 µM | 300 µM | 300 µM
2 | O=C(O)c1cc2cc(Br)ccc2oc1=O [Compound IIId, 6-bromocoumarin-3-carboxylic acid] | 500 µM | 600 µM | – | – | – | – | 500 µM | 600 µM | 400 µM | 700 ± 50 µM | 600 µM | – | 700 µM | 500 µM | 500 µM | 500 µM | 600 µM | 500 µM | – | 400 µM
3 | O=C(O)c1cc2cc(F)ccc2oc1=O [Compound IIIe, 6-fluorocoumarin-3-carboxylic acid] | 450 µM | 450 µM | 400 µM | 500 µM | 300 µM | 500 µM | 560 µM | 600 µM | 380 µM | 700 µM | 600 µM | 380 µM | 570 µM | 520 µM | 490 µM | 480 µM | 300 µM | 520 µM | 300 µM | 390 µM
